pKd: −log10 of the molar value.
How the values were obtained:
[1] = system: liver fibrosis; test: Detection of liver fibrosis by MRI, mouse CCl4 model; format: in vivo, C57BL/6 male mice; conditions: 10 μmol/kg i.v., out to 45 minutes, 7T
Method: Strain C57BL/6 male mice at approximately 3 weeks of age were purchased from Jackson Laboratory (Bar Harbor, Me.). All mice were randomly assigned to two groups: a control group (n=3) and a CCl4 group (n=8). Mice were treated three times a week for 10 weeks with either 0.04 mL of a 40 percent solution of CCl4 (Sigma, St. Louis, Mo.) in olive oil or with vehicle (olive oil only) by oral gavage. Animals from both models were imaged one week after the last injection. Mice were imaged on a 7T pre-clinical […] scanner (Bruker Biospin, Billerica, Mass.). Mice were imaged before and immediately after a 10 μmol/kg intravenous injection of COMPOUND ID NO. 1 and imaging was repeated out to 45 minutes post-injection. Following imaging, animals were sacrificed 50 min post COMPOUND ID NO. 1 injection and sections of each of the liver lobes were taken for gadolinium analysis by ICP-MS, hydroxyproline (Hyp) determination, and histology (Sirius Red staining). From the MRI data, the contrast to noise ratio (CNR, where CNR=(signal liver-signal muscle)/noise) was calculated for the liver before and at repeated time points after 10 μmol/kg injection of the COMPOUND ID NO. 1. After probe COMPOUND ID NO. […] Plots of CNR as a function of time post injection were made and the area under this CNR vs time curve was calculated. […] 1 in liver as assessed by gadolinium measurement (R^2=0.83). […]

[2] = molecular target: T1, human type I collagen (Homo sapiens, UniProt P02452+P08123); test: Collagen binding assay, dried human collagen in microtiter plate; conditions: 37° C., pH 7.4
T1 construct: purchased Advanced Biomatrix 5007-A
T1 sequence (P02452 162-1218 limits assumed): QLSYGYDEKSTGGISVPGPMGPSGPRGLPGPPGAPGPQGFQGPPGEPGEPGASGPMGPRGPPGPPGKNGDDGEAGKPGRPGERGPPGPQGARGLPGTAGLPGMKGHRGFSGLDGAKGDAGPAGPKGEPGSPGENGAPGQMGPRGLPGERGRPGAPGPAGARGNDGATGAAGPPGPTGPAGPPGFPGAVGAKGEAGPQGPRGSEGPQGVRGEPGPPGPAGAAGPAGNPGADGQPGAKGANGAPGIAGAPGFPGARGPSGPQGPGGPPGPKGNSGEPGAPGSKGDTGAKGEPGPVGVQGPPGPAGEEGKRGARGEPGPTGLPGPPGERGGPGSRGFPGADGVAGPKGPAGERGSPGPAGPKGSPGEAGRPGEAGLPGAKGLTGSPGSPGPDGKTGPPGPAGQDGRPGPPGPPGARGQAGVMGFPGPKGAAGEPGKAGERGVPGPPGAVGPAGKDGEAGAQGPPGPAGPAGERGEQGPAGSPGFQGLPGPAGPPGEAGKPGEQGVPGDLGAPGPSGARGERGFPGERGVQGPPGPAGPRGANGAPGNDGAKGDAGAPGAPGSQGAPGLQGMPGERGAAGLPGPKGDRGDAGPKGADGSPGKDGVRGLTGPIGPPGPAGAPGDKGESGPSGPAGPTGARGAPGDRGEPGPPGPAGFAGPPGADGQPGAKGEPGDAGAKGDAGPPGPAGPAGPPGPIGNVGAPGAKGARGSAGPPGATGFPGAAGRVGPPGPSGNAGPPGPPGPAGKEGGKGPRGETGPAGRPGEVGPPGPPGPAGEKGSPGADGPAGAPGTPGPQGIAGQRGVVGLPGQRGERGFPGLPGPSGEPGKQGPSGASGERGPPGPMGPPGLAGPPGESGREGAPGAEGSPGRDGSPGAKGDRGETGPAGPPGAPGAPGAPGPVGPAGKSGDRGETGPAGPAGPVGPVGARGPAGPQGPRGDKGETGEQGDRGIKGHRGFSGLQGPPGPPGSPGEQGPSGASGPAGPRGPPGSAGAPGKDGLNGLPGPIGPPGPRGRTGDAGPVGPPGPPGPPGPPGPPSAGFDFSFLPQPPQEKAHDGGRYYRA
T1 sequence (P08123 80-1119 limits assumed): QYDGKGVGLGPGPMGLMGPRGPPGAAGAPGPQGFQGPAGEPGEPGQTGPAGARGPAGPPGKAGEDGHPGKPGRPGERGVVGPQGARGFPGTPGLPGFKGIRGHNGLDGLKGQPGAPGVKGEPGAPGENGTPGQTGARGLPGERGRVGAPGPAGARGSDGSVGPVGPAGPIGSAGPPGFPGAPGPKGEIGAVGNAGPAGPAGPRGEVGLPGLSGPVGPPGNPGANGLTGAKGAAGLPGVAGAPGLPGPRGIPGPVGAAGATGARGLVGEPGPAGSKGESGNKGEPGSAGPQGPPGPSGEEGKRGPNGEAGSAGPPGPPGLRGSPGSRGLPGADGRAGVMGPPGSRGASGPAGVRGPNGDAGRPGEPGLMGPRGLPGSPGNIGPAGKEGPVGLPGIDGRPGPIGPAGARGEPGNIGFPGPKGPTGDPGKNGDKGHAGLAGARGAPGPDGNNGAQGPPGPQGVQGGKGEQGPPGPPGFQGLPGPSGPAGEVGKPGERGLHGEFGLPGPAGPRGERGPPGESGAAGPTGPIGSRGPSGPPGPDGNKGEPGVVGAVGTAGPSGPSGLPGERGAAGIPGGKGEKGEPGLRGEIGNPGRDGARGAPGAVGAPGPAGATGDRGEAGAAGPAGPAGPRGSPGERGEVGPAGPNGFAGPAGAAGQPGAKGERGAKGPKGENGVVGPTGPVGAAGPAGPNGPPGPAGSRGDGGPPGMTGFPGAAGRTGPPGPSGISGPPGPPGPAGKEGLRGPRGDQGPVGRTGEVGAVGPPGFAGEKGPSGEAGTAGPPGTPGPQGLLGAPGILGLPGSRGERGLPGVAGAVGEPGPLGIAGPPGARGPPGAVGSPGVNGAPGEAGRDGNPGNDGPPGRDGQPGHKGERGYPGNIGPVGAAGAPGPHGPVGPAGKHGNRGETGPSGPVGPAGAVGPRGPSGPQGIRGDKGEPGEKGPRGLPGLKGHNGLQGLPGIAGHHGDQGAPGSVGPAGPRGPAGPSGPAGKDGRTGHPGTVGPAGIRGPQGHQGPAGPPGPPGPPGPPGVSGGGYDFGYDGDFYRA
Method: 10 ml of a solution of 3 mg/ml of human type I collagen (VitroCol solution, Advanced Biomatrix, cat#5007-A) is dialyzed against 10 mM Phosphate (NaH2PO4), pH 4.2 at 4° C. with three changes of the dialysis buffer. The protein concentration is determined by liquid chromatography determination of hydroxyproline (P. Hutson, J. Chromatogr. B, 791 (2003) 427-430).
Ice-cold 1×PBS pH 10.8 is added to the collagen solution for a final collagen concentration of 10 μM, pH 7.4. Collagen solutions are gelled and dried down in the wells of a 96 well microtiter plate (Corning Polystyrene Flat Bottom, cat#3641). […] The final well content of gelled collagen is measured by determination of hydroxyproline and is around 180 μg/ml.
a serial dilution of 0.2 μM-30 μM of the peptide chelate is prepared in PBS, pH 7.4 ([…], of solution for each concentration). […] The concentration of free, unbound compound in the sample supernatants and the concentration of compound in the reserved (total) sample are determined by ICP-MS (Agilent 7500, gadolinium concentration). The concentration of compound bound to collagen is determined as [bound]=[total]−[unbound].
The binding of compounds to human, rat and dog collagen (5 μM) was measured over the concentration range 0.2-5 μM of Comp ID Nos.: 1-4. […]

[3] = Pharmacokinetics (rat), plasma gadolinium by ICP-MS; format: in vivo, Sprague Dawley rats; conditions: 1.3 umol/kg iv bolus in 80 mM sucrose, pH 7, plasma 2-90 minutes
Method: Compound ID No. 1 was formulated at pH 7 in 80 mM sucrose and administered to Sprague Dawley rats (n=2) at dose of 1.3 umol/kg using a bolus IV injection. Plasma was sampled at 2, 5, 15, 30, and 90 minutes post-injection and analyzed for gadolinium content using ICP-MS (FIG. 15).

[4] = system: liver fibrosis; test: Detection of liver fibrosis by MRI, rat bile duct ligation model; format: in vivo, male CD rats; conditions: 10 μmol/kg i.v., 30 minutes, 1.5 tesla
Text: Liver fibrosis was induced in male CD rats (n=8) by ligation of the common bile duct (Charles River Labs, Wilmington, Mass.). Control animals (n=12) underwent a control procedure. Rats were imaged 19 days following ligation. Rats were imaged on a 1.5-tesla clinical MRI scanner (Siemens Healthcare, Malvern, Pa.) using a home-built, transmit-receive solenoid coil. Animals were anesthetized with 1-2% isoflurane and respiration rate was monitored with a small animal physiological monitoring system (SA Instruments, Inc., Stony Brook, N.Y.). Respiratory-gated, 3D Inversion Recovery (IR) Fast Low Angle Shot (FLASH) images were acquired prior to and 30 minutes following intravenous administration of 10 μmol/kg COMPOUND ID NO. 1. A non-selective inversion pulse was used and images were acquired with inversion recovery times of 50, 100, 200, 250, 300, 400 and 1000 ms. Image acquisition parameters consisted of an echo time of TE=2.44 ms, field-of-view FOV=120×93 mm, matrix=192×150 (0.625 mm in-plane resolution), slice thickness=0.6 mm, and 36 image slices. […] Following imaging, animals were sacrificed and liver tissue was subjected to pathologic scoring of fibrosis and analyzed for hydroxyproline content. […]
Liver fibrosis was detected by MRI by measuring the change in liver R1 after injection of COMPOUND ID NO. […]

## CC(C)C[C@H](NC(=O)[C@@H]1CSSC[C@H](NC(=O)[C@H](Cc2c[nH]cn2)NC(=O)[C@H](Cc2c[nH]c3ccccc23)NC(=O)[C@H](CCCCNC(=O)CC[C@H](C(=O)O)N2CCN(CC(=O)O)CCN(CC(=O)O)CCN(CC(=O)O)CC2)NC(=O)CNC(=O)CC[C@H](C(=O)O)N2CCN(CC(=O)O)CCN(CC(=O)O)CCN(CC(=O)O)CC2)C(=O)N[C@@H]([C@@H](C)O)C(=O)N[C@@H]([C@@H](C)O)C(=O)N[C@@H](CCCCNC(=O)CC[C@H](C(=O)O)N2CCN(CC(=O)O)CCN(CC(=O)O)CCN(CC(=O)O)CC2)C(=O)N[C@@H](Cc2ccccc2)C(=O)N2CCC[C@H]2C(=O)N[C@@H](Cc2c[nH]cn2)C(=O)N[C@@H](Cc2c[nH]cn2)C(=O)N[C@@H](Cc2ccc(O)cc2)C(=O)N1)C(=O)N[C@@H](Cc1ccc(O)cc1)C(=O)N[C@@H](Cc1ccc(-c2ccccc2)cc1)C(N)=O [Compound ID No. 1]
[1]; CCl4 treated mice
  area under the CNR vs time curve (liver): 1447±192
[1]; vehicle (olive oil) treated control mice given the probe
  area under the CNR vs time curve (liver): 889±173
[2]
  pKd: 5.42
[3]
  pharmacokinetic profile: rapid initial blood clearance
[4]; BDL animals, 19 days after ligation
  ΔR1 (change in liver R1 after injection): 0.49 ± 0.22 s⁻¹
[4]; sham animals
  ΔR1 (change in liver R1 after injection): 0.15 ± 0.14 s⁻¹
